Assay results published in ChEMBL document CHEMBL5375968, “Peptide TK-HR from the Skin of Chinese Folk Medicine Frog Hoplobatrachus Rugulosus Accelerates Wound Healing via the Activation of the Neurokinin-1 Receptor” (J Med Chem, 2023).
Active and inactive are the calls of the source. No cut-off for these calls is given here.

Experiments:
Aorta [1] = assay: Ex vivo angiogenic activity in Aprepitant-treated C57BL/6 mouse aortic ring assessed as sprouting by measuring vessel outgrowth area at 20 uM measured for 7 days by microscopic analysis (reference value: 117.3 %); assay type: functional; settings: time 7 day
Neutrophil [2] = assay: Induction of wound healing in BALB/c mouse model of full-thickness wounds assessed as increase in number of neutrophil infiltration in wound skin at 50 ug/ml, TOP bid measured after 2 days by IHC analysis; assay type: functional, cell-based; settings: dose 50.0 µg/ml, time 2.0 day
Aorta [3] = assay: Ex vivo angiogenic activity in C57BL/6 mouse aortic ring assessed as increase in sprouting by measuring vessel outgrowth area at 5 uM measured for 7 days by microscopic analysis relative to control; assay type: functional; settings: time 7 day
[4] = Toxicity in BALB/c mouse model of full-thickness wounds assessed as adverse effect in behaviour at 50 to 200 ug/ml, TOP bid measured upto 8 days; settings: in vivo, topical_or_ocular, 192 h, dose 50-200 µg/ml, time < 8 day
HUVEC [5] = assay: Induction of cell migration in HUVEC cells assessed as healing rate at 20 uM measured after 24 hrs by scratch healing assay (reference value: 30.2 %); assay type: functional, Homo sapiens
RAW264.7 [6] = assay: Upregulation of phosphorylated ERK level in Aprepitant-treated mouse RAW264.7 cells at 2.5 to 20 uM incubated for 4 hrs by Western blot analysis; assay type: functional, cell-based; settings: dose 2.5-20 µM
[7] = Induction of wound healing in BALB/c mouse model of full-thickness wounds at 100 ug/ml, TOP bid measured after 6 days (reference value: 71.7 %); assay type: functional; settings: dose 100 µg/ml, time 6 day
RAW264.7 [8] = assay: Effect on total Smad2 level in mouse RAW264.7 cells at 2.5 to 20 uM incubated for 4 hrs by Western blot analysis; assay type: functional, cell-based; settings: dose 2.5-20 µM
[9] = (§1) Induction of wound healing in BALB/c mouse model of full-thickness wounds assessed as recruitment of M1-type macrophages in wound skin at 50 ug/ml, TOP bid measured after 2 days by flow cytometry (reference value: 60.9 %); assay type: functional; settings: dose 50 µg/ml, time 2 day
Mus musculus [10] = species: Mus musculus; assay: as §1; assay type: functional; settings: dose 50.0 µg/ml, time 2.0 day
HaCaT [11] = assay: Induction of cell migration in human HaCaT cells assessed as healing rate at 20 uM measured after 48 hrs by scratch healing assay (reference value: 63.1 %); assay type: functional
[12] = Induction of TGF-beta1 level in mouse RAW264.7 cells at 20 uM incubated for 24 hrs by ELISA; assay type: functional
RAW264.7 [13] = assay: Induction of phagocytosis in mouse RAW264.7 cells cultured with Escherichia coli ATCC 25922 assessed as number of engulfed bacteria at 10 uM incubated for 24 hrs followed by bacterial exposure measured after 1 hr by plate counting method (reference value: 225); assay type: functional; settings: time 25 hrs
[14] = Induction of wound healing in BALB/c mouse model of full-thickness wounds at 50 ug/ml, TOP bid pretreated with Aprepitant for 2 hrs followed by compound administration measured after 2 days (reference value: 35.3 %); assay type: functional; settings: dose 50 µg/ml, time 2 day
RAW264.7 [15] = assay: Induction of MCP-1 expression in mouse RAW264.7 cells incubated for 24 hrs by ELISA; assay type: functional, cell-based; settings: dose 2.5-20 µM
Mus musculus [16] = species: Mus musculus; assay: Induction of wound healing in BALB/c mouse model of full-thickness wounds assessed as increase in TGF-1beta production in wound skin at 50 to 200 ug/ml, TOP bid measured after 2 to 4 days by ELISA; assay type: functional; settings: dose 50-200 µg/ml, time 2-4 day
Mus musculus [17] = species: Mus musculus; assay: Induction of wound healing in BALB/c mouse model of full-thickness wounds assessed as reduction in epidermal cells in wound skin at 50 ug/ml, TOP bid measured after 4 days by IHC analysis; assay type: functional, cell-based; settings: dose 50.0 µg/ml, time 4.0 day
[18] = Induction of TGF-beta1 level in mouse RAW264.7 cells at 10 uM incubated for 24 hrs by ELISA; assay type: functional
RAW264.7 [19] = assay: Upregulation of phosphorylated Smad3 level in mouse RAW264.7 cells at 2.5 to 20 uM incubated for 4 hrs by Western blot analysis; assay type: functional, cell-based; settings: dose 2.5-20 µM
Splenic fibroblast = assay: Effect on cell migration in human […] fibroblasts at 20 uM incubated upto 48 hrs by scratch healing assay; assay type: functional, cell-based
[20] = Induction of wound healing in BALB/c mouse model of full-thickness wounds assessed as increase in collagen deposition in wound sites at 50 to 200 ug/ml, TOP bid measured after 8 days by Masson's Trichome staining based analysis relative to control; assay type: functional; settings: dose 50-200 µg/ml, time 8 day, at 50 to 200 µg/mL
Mus musculus [21] = species: Mus musculus; assay: Induction of wound healing in BALB/c mouse model of full-thickness wounds assessed as increase in endothelial cells in wound skin at 50 ug/ml, TOP bid measured after 4 days by IHC analysis; assay type: functional, cell-based; settings: dose 50.0 µg/ml, time 4.0 day
HaCaT [22] = assay: Induction of cell migration in Aprepitant-treated human HaCaT cells assessed as healing rate at 20 uM measured after 48 hrs by scratch healing assay (reference value: 63.1 %); assay type: functional
RAW264.7 [23] = assay: Upregulation of phosphorylated JNK level in mouse RAW264.7 cells at 2.5 to 20 uM incubated for 4 hrs by Western blot analysis; assay type: functional, cell-based; settings: dose 2.5-20 µM
Bacillus subtilis = assay: Antimicrobial activity against Bacillus subtilis CMCC 63501 assessed as microbial growth inhibition at 100 uM; assay type: functional, organism-based
Pseudomonas aeruginosa = assay: Antimicrobial activity against Pseudomonas aeruginosa ATCC 27853 assessed as microbial growth inhibition at 100 uM; assay type: functional, organism-based
[24] = Induction of wound healing in BALB/c mouse model of full-thickness wounds at 50 ug/ml, TOP bid measured after 4 days (reference value: 48.6 %); assay type: functional; settings: dose 50 µg/ml, time 4 day
NIH3T3 = assay: Effect on TGF-1beta production in mouse 3T3 cells at 5 to 40 uM incubated for 24 hrs by ELISA; assay type: functional, cell-based; settings: dose 5-40 µM
Neutrophil [25] = assay: Induction of chemotaxis in BALB/c mouse neutrophils assessed as increase in ratio of cell polarization at 40 uM measured for 15 mins by Zigmond-chamber based microscopy (reference value: 14.6 %); assay type: functional; settings: 0.25 h
Mus musculus [26] = species: Mus musculus; assay: Induction of wound healing in BALB/c mouse model of full-thickness wounds assessed as increase in number of blood vessels in wound skin at 50 ug/ml, TOP bid measured after 4 days by IHC analysis; assay type: functional; settings: dose 50.0 µg/ml, time 4.0 day
HUVEC [27] = assay: Induction of cell migration in Mitomycin C-treated HUVEC cells assessed as healing rate at 20 uM measured after 48 hrs by scratch healing assay (reference value: 51.6 %); assay type: functional, Homo sapiens
RAW264.7 [28] = assay: Induction of phagocytosis in mouse RAW264.7 cells assessed as increase in neutral red dye uptake by measuring optical density at 540 nm at 5 uM incubated for 24 hrs followed by dye addition measured after 4 hrs by absorbance based assay (reference value: 0.073); assay type: functional; settings: time 28 hrs
Neutrophil [29] = assay: Induction of cell migration in BALB/c mouse neutrophils incubated for 8 hrs by transwell migration assay; assay type: functional, cell-based; settings: dose 5-40 µM
Mus musculus [30] = species: Mus musculus; assay: Induction of wound healing in BALB/c mouse model of full-thickness wounds assessed as dense arrangement of collagen fibers at 50 to 200 ug/ml, TOP bid measured after 8 days by Masson's Trichome staining based analysis; assay type: functional; settings: dose 50-200 µg/ml, time 8.0 day

With H-KPNPDRFYGLM-NH2 the Activity (Aorta [1]) was 40%, the Activity (Neutrophil [2]) was “Active” and the Activity (Aorta [3]) was 77.6%. For the same substance, the Activity [4] was “Non-Toxic”, the Activity (HUVEC [5]) was 46.7% and the Activity (RAW264.7 [6]) was “inactive”. The Activity [7] was 93.9%, the Activity (RAW264.7 [8]) was “inactive” and the Activity [9] was 79.2%. For the same substance, the Activity (Mus musculus [10]) was “Active”, the Activity (HaCaT [11]) was 92.8% and the Activity [12] was 119.3 pg/mL. For the same substance, the Activity (RAW264.7 [13]) was 338, the Activity [14] was 38.7% and the Activity (RAW264.7 [15]) was “Dose-Dependent Effect”. The Activity (Mus musculus [16]) was “Active”, the Activity (Mus musculus [17]) was “Active” and the Activity [18] was 90.7 pg/mL. The Activity (RAW264.7 [19]) was “Active”, the Activity (Splenic fibroblast) was “inactive” and the Activity [20] was 197%. For the same substance, the Activity (Mus musculus [21]) was “Active”, the Activity (HaCaT [22]) was 76.1% and the Activity (RAW264.7 [23]) was “Active”. The Activity (Bacillus subtilis) was “inactive”, the Activity (Pseudomonas aeruginosa) was “inactive” and the Activity [24] was 64.8%. For the same substance, the Activity (NIH3T3) was “inactive”, the Activity (Neutrophil [25]) was 50.4% and the Activity (Mus musculus [26]) was “Active”. The Activity (HUVEC [27]) was 78.7%, the OD (RAW264.7 [28]) was 0.103 and the Activity (Neutrophil [29]) was “Dose-Dependent Effect”. For the same substance, the Activity (Mus musculus [30]) was “Active”.
